Reference: publication PMC10119423, “From PERK to RIPK1: Design, synthesis and evaluation of novel potent and selective necroptosis inhibitors” (Frontiers in Chemistry, 2023)

Assays:
PERK = target: T1, PERK (Mus musculus, UniProt Q9Z2B5); experiment: PERK autophosphorylation by Western blot in tunicamycin-stimulated immortalized MEFs; format: cell-based
T1 construct: Immortalized MEFs were pretreated for 30 min with increasing concentrations of GSK’157 and the indicated compounds and stimulated with tunicamycin; endogenous in cells; host or cells: immortalized mouse embryonic fibroblasts (MEFs, C57Bl6/J)
T1 sequence (Q9Z2B5 29-1114): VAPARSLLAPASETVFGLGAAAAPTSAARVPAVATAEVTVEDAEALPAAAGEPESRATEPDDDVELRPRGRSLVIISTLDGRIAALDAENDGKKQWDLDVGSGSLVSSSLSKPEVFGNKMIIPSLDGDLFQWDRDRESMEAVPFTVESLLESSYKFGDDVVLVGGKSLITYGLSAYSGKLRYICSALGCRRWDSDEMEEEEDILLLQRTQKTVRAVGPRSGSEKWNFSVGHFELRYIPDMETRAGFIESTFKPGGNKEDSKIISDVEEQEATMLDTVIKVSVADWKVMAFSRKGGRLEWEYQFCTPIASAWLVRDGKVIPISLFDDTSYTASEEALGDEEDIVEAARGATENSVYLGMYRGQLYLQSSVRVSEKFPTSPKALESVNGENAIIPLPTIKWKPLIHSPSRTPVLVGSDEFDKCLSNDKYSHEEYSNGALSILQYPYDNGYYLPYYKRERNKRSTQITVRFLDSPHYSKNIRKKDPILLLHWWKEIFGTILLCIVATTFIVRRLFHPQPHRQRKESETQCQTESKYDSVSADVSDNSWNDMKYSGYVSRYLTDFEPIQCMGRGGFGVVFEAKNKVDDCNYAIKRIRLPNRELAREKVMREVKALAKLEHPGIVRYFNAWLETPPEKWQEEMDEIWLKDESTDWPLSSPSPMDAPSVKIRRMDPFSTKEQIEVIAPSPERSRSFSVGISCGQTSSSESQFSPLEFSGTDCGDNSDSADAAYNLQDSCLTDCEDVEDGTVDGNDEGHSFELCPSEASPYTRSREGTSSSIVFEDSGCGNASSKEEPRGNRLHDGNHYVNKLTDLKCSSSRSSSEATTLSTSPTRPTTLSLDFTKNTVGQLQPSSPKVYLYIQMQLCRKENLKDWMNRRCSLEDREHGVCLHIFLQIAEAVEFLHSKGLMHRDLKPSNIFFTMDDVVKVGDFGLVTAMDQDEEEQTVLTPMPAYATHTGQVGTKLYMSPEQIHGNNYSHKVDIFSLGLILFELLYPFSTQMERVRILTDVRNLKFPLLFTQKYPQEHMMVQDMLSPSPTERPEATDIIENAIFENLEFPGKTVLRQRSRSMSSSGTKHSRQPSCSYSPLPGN
Method: MEFs were seeded in 6-well plates at a density of 300.000 cells/well in 2 mL. The next day, the cells were suspended in 1 mL of medium and pre-treated for 30 min with the indicated compounds at 1/5 dilutions series for PERK ranging from 5 to 0.04 µM and 1 μg/mL of Tm followed by 4 h treatment with 20 ng/mL of hTNF. For RIPK1, the cells were pre-treated at 1/10 dilutions series ranging from 10 to 0.01 nM, 50 µM zVAD.fmk and 1 µM TAKi before stimulation with 20 ng/mL of hTNF for 2.5 h. Then, the cells were washed two times with 1 mL of ice-cold PBS before lysis in 0.2 mL of Laemmli buffer 1x (10% (w/v) SDS, 50% glycerol, 0.5% bromophenol blue, 250 mM Tris–HCl pH 6.8) and 250 mM of dithiothreitol (DTT). The cell lysate was then collected and boiled at 95 °C for 10min and stored at −20°C. Proteins expression was later monitored by immunoblotting.
Their activities were evaluated by comparing the intensity of the signal to unstimulated MEFs (considered as zero phosphorylation) and Tunicamycin stimulated cells (considered as 100% PERK phosphorylation). […] The MEFs were pre-incubated for 30 min with the different compounds (0.01 nM–1000 nM) and then stimulated with human TNF (20 ng/mL) for 2.5 h. Similar to the PERK assessment, IC50 values for RIPK1 inhibition were estimated as a range of concentrations, and are reported in Table 1.

MEFs = experiment: RIPK1 kinase-dependent apoptosis (hTNF + TAK1i) in MEFs, Sytox Green; format: cell-based; conditions: Mus musculus, TAK1i + hTNF (100 pg/mL)
Source text: In MEFs, TNF together with the pan caspases inhibitor zVAD.fmk induces RIPK1-dependent necroptosis while TNF together with TAK1 inhibitor induces RIPK1 kinase-dependent apoptosis. We also included the conditions selected for the Western blot experiments, where necroptosis was induced by the combination of hTNF, zVAD.fmk and TAK1 inhibitor.

RIPK1 (h) = target: T2, RIPK1 (h) (Homo sapiens, UniProt Q13546); experiment: KinaseProfiler assay (Eurofins Cerep), hRIPK1 inhibition; format: biochemical; conditions: 9 concentrations (0.0001 μM–1.0 μM), 10 μM ATP
T2 construct: purchased Eurofins Cerep (KinaseProfiler service)
T2 sequence (Q13546 1-671): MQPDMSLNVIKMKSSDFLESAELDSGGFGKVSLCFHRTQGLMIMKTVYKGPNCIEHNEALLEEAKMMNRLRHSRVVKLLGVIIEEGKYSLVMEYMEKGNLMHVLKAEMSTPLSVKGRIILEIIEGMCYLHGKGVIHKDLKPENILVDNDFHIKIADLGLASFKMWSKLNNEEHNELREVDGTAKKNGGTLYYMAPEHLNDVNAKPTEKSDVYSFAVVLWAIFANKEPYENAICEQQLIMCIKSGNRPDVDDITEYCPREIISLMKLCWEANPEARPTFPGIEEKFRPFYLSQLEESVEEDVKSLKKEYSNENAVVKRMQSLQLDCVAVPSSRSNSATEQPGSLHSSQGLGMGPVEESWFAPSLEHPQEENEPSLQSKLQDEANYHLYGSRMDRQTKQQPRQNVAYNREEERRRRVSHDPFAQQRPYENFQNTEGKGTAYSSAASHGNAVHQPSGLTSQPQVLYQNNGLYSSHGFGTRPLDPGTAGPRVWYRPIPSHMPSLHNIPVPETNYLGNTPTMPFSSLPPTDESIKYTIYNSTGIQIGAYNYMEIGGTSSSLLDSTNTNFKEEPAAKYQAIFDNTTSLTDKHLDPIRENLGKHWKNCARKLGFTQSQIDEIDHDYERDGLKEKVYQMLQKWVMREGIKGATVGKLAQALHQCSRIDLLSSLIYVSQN
Method: RIPK1 (h) is incubated with 8 mM MOPS pH 7.0, 0.2 mM EDTA, 0.33 mg/mL myelin basic protein, 10 mM Magnesium acetate and [γ-^33P-ATP] (specific activity and concentration as required). The reaction is initiated by the addition of the Mg/ATP mix. After incubation for 120 min at room temperature, the reaction is stopped by the addition of phosphoric acid to a concentration of 0.5%.

HT-29 = experiment: Necroptosis (hTNF + TAK1i + zVAD.fmk) in HT-29 cells, Sytox Green; conditions: Homo sapiens, HT-29, read-out: Necroptosis hTNF + TAK1i + zVAD.fmk HT-29 IC50
Method: In brief, the cells were seeded in duplicate at 10,000 cells per well in a 96-well adherent plate and incubated overnight at 37°C with 5% CO2. […] All the compound stock solutions were prepared in DMSO at 200 µM concentration. After stimulating the cells with human TNF at 20 ng/mL the plate was transferred to the incubator. Sytox Green intensity was measured in function of time at 0, 14 and 24 h with an excitation filter of 485 nm, an emission filter of 520 nm. The cell death was calculated by subtracting the background fluorescence from the induced Sytox Green fluorescence and by dividing the obtained result by the maximal fluorescence (minus the background fluorescence) obtained by permeabilization of the cells by using Triton X-100 at a final concentration of 0.1%. Curves were plotted in GraphPad 9 for the IC50 calculation.
To induce necroptosis in human colorectal adenocarcinoma cell line (HT-29) together with hTNF and the pan caspases inhibitor zVAD.fmk, TAK1 inhibitor is also needed.

## Cn1cc(-c2ccc3c(c2F)CCN3C(=O)Cc2ccc(C(F)(F)F)cn2)c2c(N)ncnc21 [Compound 22]
PERK; MEFs, Western blot, 0.04, 0.2, 1 and 5 µM, highest concentration tested 5 µM
  PERK inhibition at the tested concentrations (in words): no PERK inhibition
PERK; immortalized MEFs, 30 min pretreatment, tunicamycin 1 μg/ml for 4 h, PERK autophosphorylation, read-out: PERK inhibition (IC50 estimated from a Western blot)
  IC50: > 5000 nM
MEFs
  IC50: 3.3 nM
RIPK1 (h)
  IC50: 139 nM
HT-29
  IC50: 6.5 nM
